Source: patent publication US9375497B2, “[F-18]-labeled L-glutamic acid, [F-18]-labeled L-glutamine, derivatives thereof and use thereof and processes for their preparation” (BAYER SCHERING PHARMA AKTIENGESELLSCHAFT, priority 2006, dated 2016)

System: murine B16F1 melanoma model in C57BI6 mice
Test: Tumor enrichment and tissue distribution, B16F1 melanoma model
Conditions: for Tumor/tissue quotient, Blood / Tumor/tissue quotient, Brain / Tumor/tissue quotient, Fat / Tumor/tissue quotient, Heart / Tumor/tissue quotient, Intestine / Tumor/tissue quotient, Kidney / Tumor/tissue quotient, Liver / Tumor/tissue quotient, Lung / Tumor/tissue quotient, Muscle / Tumor/tissue quotient, Ovary / Tumor/tissue quotient, Skin / Tumor/tissue quotient, Spleen / Tumor/tissue quotient, Stomach / Tumor/tissue quotient, Uterus: single i.v.; for Tissue uptake, Blood / Tissue uptake, Brain / Tissue uptake, Fat / Tissue uptake, Heart / Tissue uptake, Intestine / Tissue uptake, Kidney / Tissue uptake, Liver / Tissue uptake, Lung / Tissue uptake, Muscle / Tissue uptake, Ovary / Tissue uptake, Skin / Tissue uptake, Spleen / Tissue uptake, Stomach / Tissue uptake, Tumor / Tissue uptake, Uterus: single i.v. 370 kBq; for tumor/blood quotient / tumor/blood quotient, factor higher than for [^14C]5-glutamic acid / tumor/liver quotient / tumor/liver quotient, factor higher than for [^14C]5-glutamic acid: B16F1 melanoma model
Method: For the evaluation of the tumor enrichment and the tissue distribution in experimental animals, [^18F]-4-glutamic acid was tested in a murine F9 teratocarcinoma model in NMRI nude mice and a murine B16F1 melanoma model in C57BI6 mice.
For this, 1×10^6 cells (F9) or 5×10^5 cells (B16F1) respectively were suspended in 100 μl of phosphate-buffered physiological saline solution and inoculated subcutaneously into the right, rear flank of the corresponding experimental animal species (NMRI for F9 and 057-BI6 for B16F1) (Berndorff et al. Clin. Cancer Res. 2005, 11, 2005). […] [^18F]-4-Glutamic acid (370 kBq, in 100 μl of physiological saline solution) was administered intravenously to the tail vein. After 15; 60 and 120 min in each case, the animals were killed, organ and tumor removed, weighed and measured for radioactive content.

In the case of `NC(CC([18F])C(=O)O)C(=O)O` (stereo not shown) [[^18F]4-glutamic acid, 4-[F-18]fluoroglutamic acid], the “Tumor/tissue quotient, Blood” value (0.25 h (times as Table 3)) is reported as 1.21, the “Tumor/tissue quotient, Brain” value (0.25 h (times as Table 3)) is reported as 4.89 and the “Tumor/tissue quotient, Fat” value (0.25 h (times as Table 3)) is reported as 3.95. The “Tumor/tissue quotient, Heart” value (0.25 h (times as Table 3)) was 1.06, the “Tumor/tissue quotient, Intestine” value (0.25 h (times as Table 3)) was 1.19 and the “Tumor/tissue quotient, Kidney” value (0.25 h (times as Table 3)) was 0.31. The “Tumor/tissue quotient, Liver” value (0.25 h (times as Table 3)) was 0.93, the “Tumor/tissue quotient, Lung” value (0.25 h (times as Table 3)) was 0.32 and the “Tumor/tissue quotient, Muscle” value (0.25 h (times as Table 3)) was 1.72. The “Tumor/tissue quotient, Ovary” value (0.25 h (times as Table 3)) was 1.03, the “Tumor/tissue quotient, Skin” value (0.25 h (times as Table 3)) was 1.49 and the “Tumor/tissue quotient, Spleen” value (0.25 h (times as Table 3)) was 0.89. For the same molecule, the “Tumor/tissue quotient, Stomach” value (0.25 h (times as Table 3)) was 1.05, the “Tumor/tissue quotient, Uterus” value (0.25 h (times as Table 3)) was 0.56 and the “Tissue uptake, Blood” value (0.25 h) was 2.93 % dose/g. The “Tissue uptake, Brain” value (0.25 h) was 0.73 % dose/g, the “Tissue uptake, Fat” value (0.25 h) was 0.92 % dose/g and the “Tissue uptake, Heart” value (0.25 h) was 3.36 % dose/g. For the same molecule, the “Tissue uptake, Intestine” value (0.25 h) was 3.00 % dose/g, the “Tissue uptake, Kidney” value (0.25 h) was 11.35 % dose/g and the “Tissue uptake, Liver” value (0.25 h) was 3.81 % dose/g. For the same molecule, the “Tissue uptake, Lung” value (0.25 h) was 11.10 % dose/g, the “Tissue uptake, Muscle” value (0.25 h) was 2.19 % dose/g and the “Tissue uptake, Ovary” value (0.25 h) was 3.57 % dose/g. The “Tissue uptake, Skin” value (0.25 h) was 2.43 % dose/g, the “Tissue uptake, Spleen” value (0.25 h) was 4.07 % dose/g and the “Tissue uptake, Stomach” value (0.25 h) was 3.41 % dose/g. For the same molecule, the “Tissue uptake, Tumor” value (0.25 h) was 3.55 % dose/g, the “Tissue uptake, Uterus” value (0.25 h) was 7.17 % dose/g and the “Tumor/tissue quotient, Blood” value (1.0 h (times as Table 3)) was 5.25. The “Tumor/tissue quotient, Brain” value (1.0 h (times as Table 3)) was 4.7, the “Tumor/tissue quotient, Fat” value (1.0 h (times as Table 3)) was 14.16 and the “Tumor/tissue quotient, Heart” value (1.0 h (times as Table 3)) was 3.54. The “Tumor/tissue quotient, Intestine” value (1.0 h (times as Table 3)) was 1.56, the “Tumor/tissue quotient, Kidney” value (1.0 h (times as Table 3)) was 1.25 and the “Tumor/tissue quotient, Liver” value (1.0 h (times as Table 3)) was 3.63. For the same molecule, the “Tumor/tissue quotient, Lung” value (1.0 h (times as Table 3)) was 1.51, the “Tumor/tissue quotient, Muscle” value (1.0 h (times as Table 3)) was 4.3 and the “Tumor/tissue quotient, Ovary” value (1.0 h (times as Table 3)) was 4.38. For the same molecule, the “Tumor/tissue quotient, Skin” value (1.0 h (times as Table 3)) was 5.43, the “Tumor/tissue quotient, Spleen” value (1.0 h (times as Table 3)) was 2.81 and the “Tumor/tissue quotient, Stomach” value (1.0 h (times as Table 3)) was 4.02. The “Tumor/tissue quotient, Uterus” value (1.0 h (times as Table 3)) was 3.84, the “Tissue uptake, Blood” value (1.0 h) was 0.48 % dose/g and the “Tissue uptake, Brain” value (1.0 h) was 0.49 % dose/g. For the same molecule, the “Tissue uptake, Fat” value (1.0 h) was 0.18 % dose/g, the “Tissue uptake, Heart” value (1.0 h) was 0.71 % dose/g and the “Tissue uptake, Intestine” value (1.0 h) was 1.28 % dose/g. For the same molecule, the “Tissue uptake, Kidney” value (1.0 h) was 2.25 % dose/g, the “Tissue uptake, Liver” value (1.0 h) was 0.64 % dose/g and the “Tissue uptake, Lung” value (1.0 h) was 1.47 % dose/g. For the same molecule, the “Tissue uptake, Muscle” value (1.0 h) was 0.53 % dose/g, the “Tissue uptake, Ovary” value (1.0 h) was 0.58 % dose/g and the “Tissue uptake, Skin” value (1.0 h) was 0.48 % dose/g. The “Tissue uptake, Spleen” value (1.0 h) was 0.81 % dose/g, the “Tissue uptake, Stomach” value (1.0 h) was 0.59 % dose/g and the “Tissue uptake, Tumor” value (1.0 h) was 2.14 % dose/g. The “Tissue uptake, Uterus” value (1.0 h) was 0.69 % dose/g, the “Tumor/tissue quotient, Blood” value (2.0 h (times as Table 3)) was 7.93 and the “Tumor/tissue quotient, Brain” value (2.0 h (times as Table 3)) was 3.55. The “Tumor/tissue quotient, Fat” value (2.0 h (times as Table 3)) was 8.85, the “Tumor/tissue quotient, Heart” value (2.0 h (times as Table 3)) was 5.06 and the “Tumor/tissue quotient, Intestine” value (2.0 h (times as Table 3)) was 0.87. The “Tumor/tissue quotient, Kidney” value (2.0 h (times as Table 3)) was 2.22, the “Tumor/tissue quotient, Liver” value (2.0 h (times as Table 3)) was 4.42 and the “Tumor/tissue quotient, Lung” value (2.0 h (times as Table 3)) was 2.34. For the same molecule, the “Tumor/tissue quotient, Muscle” value (2.0 h (times as Table 3)) was 6.95, the “Tumor/tissue quotient, Ovary” value (2.0 h (times as Table 3)) was 3.02 and the “Tumor/tissue quotient, Skin” value (2.0 h (times as Table 3)) was 5.94. For the same molecule, the “Tumor/tissue quotient, Spleen” value (2.0 h (times as Table 3)) was 4.03, the “Tumor/tissue quotient, Stomach” value (2.0 h (times as Table 3)) was 4.24 and the “Tumor/tissue quotient, Uterus” value (2.0 h (times as Table 3)) was 2.59. The “Tissue uptake, Blood” value (2.0 h) was 0.16 % dose/g, the “Tissue uptake, Brain” value (2.0 h) was 0.36 % dose/g and the “Tissue uptake, Fat” value (2.0 h) was 0.16 % dose/g. The “Tissue uptake, Heart” value (2.0 h) was 0.28 % dose/g, the “Tissue uptake, Intestine” value (2.0 h) was 1.46 % dose/g and the “Tissue uptake, Kidney” value (2.0 h) was 0.57 % dose/g. The “Tissue uptake, Liver” value (2.0 h) was 0.29 % dose/g, the “Tissue uptake, Lung” value (2.0 h) was 0.56 % dose/g and the “Tissue uptake, Muscle” value (2.0 h) was 0.24 % dose/g. The “Tissue uptake, Ovary” value (2.0 h) was 0.45 % dose/g, the “Tissue uptake, Skin” value (2.0 h) was 0.22 % dose/g and the “Tissue uptake, Spleen” value (2.0 h) was 0.31 % dose/g. The “Tissue uptake, Stomach” value (2.0 h) was 0.30 % dose/g, the “Tissue uptake, Tumor” value (2.0 h) was 1.27 % dose/g and the “Tissue uptake, Uterus” value (2.0 h) was 0.76 % dose/g. The tumor/blood quotient (1 h p.i.) was 5.3, the “tumor/blood quotient, factor higher than for [^14C]5-glutamic acid” value (1 h p.i.) was 2 and the tumor/liver quotient (1 h p.i.) was 3.6. For the same molecule, the “tumor/liver quotient, factor higher than for [^14C]5-glutamic acid” value (1 h p.i.) was 4.6, the tumor/blood quotient (2 h p.i.) was 7.9 and the “tumor/blood quotient, factor higher than for [^14C]5-glutamic acid” value (2 h p.i.) was 3.5. For the same molecule, the tumor/liver quotient (2 h p.i.) was 4.4, the “tumor/liver quotient, factor higher than for [^14C]5-glutamic acid” value (2 h p.i.) was 5.5 and the tumor enrichment (B16F1 melanoma, 1 h after intravenous administration) was 2.14 % ID/g. For the same molecule, the maximal tumor enrichment (B16 melanoma, after intravenous injection (15 min)) was 3.55 % ID/g.
